Molecules are shown by their SMILES.

For the test, the target named is T1, DPP-IV, obtained from porcine kidneys (Sus scrofa, UniProt P22411).
T1 construct: DPP-IV, obtained from porcine kidneys; from tissue; host or cells: porcine kidney
As to the kind of experiment: Measurement of DPPIV inhibiting effects (Gly-Pro-p-nitroanilide, absorbance at 405 nm). It is filed as biochemical. The note with it: porcine kidney DPP-IV 10 mU/mL, 20 min preincubation, Gly-Pro-p-nitroanilide 0.33 mM, pH 7.4. The procedure: Measurement of DPPIV Inhibiting Effects
DPP-IV, obtained from porcine kidneys, was dissolved in a reaction buffer solution (50 mM Tris-HCl, pH 7.4, 0.1% BSA) such that the concentration of DPP-IV was at 10 mU/mL. This solution (110 μl) was placed into test tubes, to which compounds to be tested were further added at a quantity of 15 μl and incubated at room temperature for 20 minutes. Twenty-five microliters of a solution in which Gly-Pro-p-nitroanilide was dissolved at 2 mM was added (final concentration, 0.33 mM) to start the enzymatic reaction. The reaction time was 20 minutes. The reaction was stopped by the addition of 25 μl of 1 N phosphoric acid.

T1 sequence (P22411 whole entry): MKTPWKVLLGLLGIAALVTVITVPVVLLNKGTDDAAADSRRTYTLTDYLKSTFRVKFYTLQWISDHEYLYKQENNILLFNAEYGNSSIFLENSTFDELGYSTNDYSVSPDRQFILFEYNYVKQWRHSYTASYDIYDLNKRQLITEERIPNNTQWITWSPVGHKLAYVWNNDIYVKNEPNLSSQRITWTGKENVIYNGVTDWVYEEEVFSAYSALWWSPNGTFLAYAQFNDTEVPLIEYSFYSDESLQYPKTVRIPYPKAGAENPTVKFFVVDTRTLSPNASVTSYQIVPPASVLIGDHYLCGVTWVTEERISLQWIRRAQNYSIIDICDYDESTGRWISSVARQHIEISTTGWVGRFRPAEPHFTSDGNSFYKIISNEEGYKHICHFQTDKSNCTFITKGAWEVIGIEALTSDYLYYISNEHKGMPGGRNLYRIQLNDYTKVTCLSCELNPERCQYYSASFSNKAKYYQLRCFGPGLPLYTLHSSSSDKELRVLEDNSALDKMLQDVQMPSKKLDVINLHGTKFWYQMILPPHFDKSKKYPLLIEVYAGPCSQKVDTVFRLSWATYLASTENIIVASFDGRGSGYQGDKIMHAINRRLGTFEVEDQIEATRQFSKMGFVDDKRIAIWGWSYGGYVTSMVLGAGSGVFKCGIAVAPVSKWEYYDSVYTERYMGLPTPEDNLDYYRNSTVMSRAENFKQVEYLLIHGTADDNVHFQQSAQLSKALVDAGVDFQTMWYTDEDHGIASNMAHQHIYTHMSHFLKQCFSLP

Broadly, the IC50 is the concentration needed to halve the response being measured. Read a high IC50 as weaker potency in that assay. In turn, `Cc1cccc(OCC(F)(F)F)c1S(=O)(=O)c1ncn(C(=O)N(C)C)n1` [Example 41, 3-[2-(2,2,2-Trifluoroethyl)oxy-6-methylphenyl]sulfonyl-1-dimethyl-carbamoyl-1H-1,2,4-triazole] showed an IC50 of 0.00425 µM.

Molecule `CN(C)C(=O)n1cnc(S(=O)(=O)CC(C)(C)C)n1` [Example 21, 3-(2-Dimethylpropyl)sulfonyl-1-dimethylcarbamoyl-1H-1,2,4-triazole] came in with an IC50 of 0.688 µM.

As to `CCN(CC)C(=O)n1cnc(S(=O)(=O)Cc2ccccc2)n1` [Example 3, 3-Benzylsulfonyl-1-diethylcarbamoyl-1H-1,2,4-triazole], the IC50 came out at 0.784 µM.

`CN(C)C(=O)n1cnc(S(=O)(=O)C(c2ccccc2)c2ccccc2)n1` [Example 7, 3-(Diphenylmethyl)sulfonyl-1-dimethylcarbamoyl-1H-1,2,4-triazole] returned an IC50 of 0.192 µM.

As to `O=C(N1CCSC1)n1cnc(S(=O)(=O)[C@@H]2C[C@@H]3CC[C@H]2C3)n1` (relative stereo) [Example 25, 3-(Endo-norbornan-2-yl)sulfonyl-1-(1,3-thiazolidin-3-yl)carbonyl-1H-1,2,4-triazole], the 50% inhibitory concentration (IC50) is 0.0574 µM.

The molecule `CN(C)C(=O)n1cnc(SC(c2ccccc2)c2ccccc2)n1` [Example 6, 3-(Diphenylmethyl)thio-1-dimethylcarbamoyl-1H-1,2,4-triazole] returned an IC50 of 3.46 µM.

`CN(C)C(=O)n1cnc(S(=O)(=O)C(c2ccc(F)cc2)c2ccc(F)cc2)n1` [Example 9, 3-[Bis(4-fluorophenyl)methyl]sulfonyl-1-dimethylcarbamoyl-1H-1,2,4-triazole] came in with an IC50 of 0.219 µM.

With `CN(C)C(=O)n1cnc(S[C@@H]2C[C@@H]3CC[C@H]2C3)n1` (relative stereo) [Example 12, 3-(Endo-norbornan-2-yl)thio-1-dimethylcarbamoyl-1H-1,2,4-triazole], the IC50 was determined as 1.73 µM.

`CN(C)C(=O)n1cnc(SC2CCCCC2)n1` [Example 14, 3-Cyclohexylthio-1-dimethylcarbamoyl-1H-1,2,4-triazole] registered an IC50 of 2.22 µM.

Turning to `CN(C)C(=O)n1cnc(S(=O)(=O)Cc2ccc(C(C)(C)C)cc2)n1` [Example 5, 3-(4-Tert-butylbenzyl)sulfonyl-1-dimethylcarbamoyl-1H-1,2,4-triazole], the IC50 worked out at 1.35 µM.

In turn, `CCN(C)C(=O)n1cnc(S(=O)(=O)c2c(C)cc(C)cc2C)n1` [Example 36, 3-(2,4,6-Trimethylphenyl)sulfonyl-1-(N-methyl-N-ethylcarbamoyl)-1H-1,2,4-triazole] displayed an IC50 of 0.000347 µM.

As to `Cc1cc(C)c(S(=O)(=O)c2ncn(C(=O)N(C)c3ccccc3)n2)c(C)c1` [Example 35, 3-(2,4,6-Trimethylphenyl)sulfonyl-1-(N-methyl-N-phenylcarbamoyl)-1H-1,2,4-triazole], the IC50 turned out to be 1.51 µM.

The molecule `CCN(C)C(=O)n1cnc(S(=O)(=O)[C@@H]2C[C@@H]3CC[C@H]2C3)n1` (relative stereo) [Example 24, 3-(Endo-norbornan-2-yl)sulfonyl-1-(N-methyl-N-ethylcarbamoyl)-1H-1,2,4-triazole] came in with an IC50 of 0.0215 µM.

The molecule `CCN(CC)C(=O)n1cnc(S(=O)(=O)c2c(C)cc(C)cc2C)n1` [Example 34, 3-(2,4,6-Trimethylphenyl)sulfonyl-1-diethylcarbamoyl-1H-1,2,4-triazole] displayed an IC50 of 6.63 µM.

On to `CN(C)C(=O)n1cnc(S(=O)(=O)N(C)c2ccc(Cl)cc2)n1` [Example 58, 3-[N-(4-chlorophenyl)-N-methylamino]sulfonyl-1-dimethylcarbamoyl-1H-1,2,4-triazole], for which the IC50 was determined as 0.0157 µM.

As for `CN(C)C(=O)n1cnc(SC2CCOc3ccccc32)n1` (centres unmarked) [Example 10, 3-(Chroman-4-yl)thio-1-dimethylcarbamoyl-1H-1,2,4-triazole], half-maximal inhibition (IC50) was put at 0.694 µM.

As for `CC(C)CCS(=O)(=O)c1ncn(C(=O)N(C)C)n1` [Example 20, 3-(3-Methylbutyl)sulfonyl-1-dimethylcarbamoyl-1H-1,2,4-triazole], the IC50 is 1.37 µM.

As for `CCCN(C)C(=O)n1cnc(S(=O)(=O)c2c(C)cc(C)cc2C)n1` [Example 37, 3-(2,4,6-Trimethylphenyl)sulfonyl-1-(N-methyl-N-propylcarbamoyl)-1H-1,2,4-triazole], 0.01 µM corresponded to half-maximal inhibition (IC50).

`O=C(N1CCCC1)n1cnc(S(=O)(=O)[C@@H]2C[C@@H]3CC[C@H]2C3)n1` (relative stereo) [Example 26, 3-(Endo-norbornan-2-yl)sulfonyl-1-(pyrrolidin-1-yl)carbonyl-1H-1,2,4-triazole] came in with an IC50 of 0.244 µM.

Consider `CN(C)C(=O)n1cnc(S(=O)(=O)CC23CC4CC(CC(C4)C2)C3)n1` [Example 19, 3-(1-Adamantylmethyl)sulfonyl-1-dimethylcarbamoyl-1H-1,2,4-triazole], for which half-maximal inhibition (IC50) was put at 0.233 µM.

Molecule `CN(C)C(=O)n1cnc(SCC2CCCCC2)n1` [Example 16, 3-Cyclohexylmethylthio-1-dimethylcarbamoyl-1H-1,2,4-triazole] yielded an IC50 of 5.53 µM.

`CC(C)N(C)C(=O)n1cnc(S(=O)(=O)[C@@H]2C[C@@H]3CC[C@H]2C3)n1` (relative stereo) [Example 29, 3-(Endo-norbornan-2-yl)sulfonyl-1-(N-methyl-N-isopropylcarbamoyl)-1H-1,2,4-triazole]: the IC50 turned out to be 0.00888 µM.

`CN(C)C(=O)n1cnc(S(=O)(=O)CC2CCCCC2)n1` [Example 17, 3-Cyclohexylmethylsulfonyl-1-dimethylcarbamoyl-1H-1,2,4-triazole] had an IC50 of 0.416 µM.

Take `CN(C)C(=O)n1cnc(SCc2ccccc2)n1` [Example 1, 3-Benzylthio-1-dimethylcarbamoyl-1H-1,2,4-triazole]: the IC50 was determined as 4.69 µM.

`CN(C)C(=O)n1cnc(Sc2cc(F)c(C#N)cc2F)n1` [Example 44, 3-(4-Cyano-2,5-difluorophenyl)thio-1-dimethylcarbamoyl-1H-1,2,4-triazole] registered an IC50 of 0.318 µM.

Consider `Cc1nc2ccccn2c1S(=O)(=O)c1ncn(C(=O)N(C)C)n1` [Example 51, 3-(2-Methylimidazo[1,2-a]pyridin-3-yl)sulfonyl-1-dimethylcarbamoyl-1H-1,2,4-triazole], for which it took 0.106 µM to reach half-maximal inhibition (IC50).

Take `Cc1cc(C)c(S(=O)(=O)c2ncn(C(=O)N(C)C)n2)c(C)c1` [Example 33, 3-(2,4,6-Trimethylphenyl)sulfonyl-1-dimethylcarbamoyl-1H-1,2,4-triazole]: the IC50 was 0.00951 µM.

As to `Cc1cc(C)n(S(=O)(=O)c2ncn(C(=O)N(C)C)n2)n1` [Example 56, 3-(3,5-Dimethylpyrazol-1-yl)sulfonyl-1-dimethylcarbamoyl-1H-1,2,4-triazole], the midpoint of inhibition, the IC50, lay at 0.101 µM.

As to `CN(C)C(=O)n1cnc(S(=O)(=O)Cc2ccc(F)cc2)n1` [Example 4, 3-(4-Fluorobenzyl)sulfonyl-1-dimethylcarbamoyl-1H-1,2,4-triazole], it took 0.657 µM to reach half-maximal inhibition (IC50).

Consider `Cc1ccc(S(=O)(=O)c2ncn(C(=O)N(C)C)n2)cc1` [Example 60, 3-(4-Toluenesulfonyl)-1-dimethylcarbamoyl-1H-1,2,4-triazole], for which half-maximal inhibition (IC50) was put at 0.335 µM.

Molecule `CN(C)C(=O)n1cnc(S(=O)(=O)C2CCOc3ccccc32)n1` (centres unmarked) [Example 11, 3-(Chroman-4-yl)sulfonyl-1-dimethylcarbamoyl-1H-1,2,4-triazole] yielded an IC50 of 0.216 µM.

Take `Cc1noc(C)c1S(=O)(=O)c1ncn(C(=O)N(C)C)n1` [Example 47, 3-(3,5-Dimethylisoxazol-4-yl)sulfonyl-1-dimethylcarbamoyl-1H-1,2,4-triazole]: the IC50 amounted to 0.103 µM.

For the molecule `Cc1nn(-c2ccccc2)c(C)c1S(=O)(=O)c1ncn(C(=O)N(C)C)n1` [Example 49, 3-(3,5-Dimethyl-1-phenylpyrazol-4-yl)sulfonyl-1-dimethylcarbamoyl-1H-1,2,4-triazole], 0.0258 µM corresponded to half-maximal inhibition (IC50).

Turning to `COCCOc1cccc(C)c1Sc1ncn(C(=O)N(C)C)n1` [Example 42, 3-[2-(2-Methoxyethyl)oxy-6-methylphenyl]thio-1-dimethylcarbamoyl-1H-1,2,4-triazole], 0.551 µM corresponded to half-maximal inhibition (IC50).

In the case of `Cc1cc(C)c([S+]([O-])c2ncn(C(=O)N(C)C)n2)c(C)c1` (centres unmarked) [Example 39, 3-(2,4,6-Trimethylphenyl)sulfinyl-1-dimethylcarbamoyl-1H-1,2,4-triazole], the IC50 is 0.0228 µM.

Consider `Cc1nn(-c2ccccc2)c(C)c1Sc1ncn(C(=O)N(C)C)n1` [Example 48, 3-(3,5-Dimethyl-1-phenylpyrazol-4-yl)thio-1-dimethylcarbamoyl-1H-1,2,4-triazole], for which the IC50 came to 1.55 µM.

In turn, `CC(C)CN(C)C(=O)n1cnc(S(=O)(=O)[C@@H]2C[C@@H]3CC[C@H]2C3)n1` (relative stereo) [Example 30, 3-(Endo-norbornan-2-yl)sulfonyl-1-(N-methyl-N-isobutylcarbamoyl)-1H-1,2,4-triazole] registered an IC50 of 0.266 µM.

`CN(C)C(=O)n1cnc(S(=O)(=O)N2CCc3ccccc32)n1` [Example 57, 3-(2,3-Dihydro-1H-indol-1-yl)sulfonyl-1-dimethylcarbamoyl-1H-1,2,4-triazole] had an IC50 of 0.23 µM.

`Cc1noc(C)c1Sc1ncn(C(=O)N(C)C)n1` [Example 46, 3-(3,5-Dimethylisoxazol-4-yl)thio-1-dimethylcarbamoyl-1H-1,2,4-triazole] returned an IC50 of 1.77 µM.

In the case of `Cc1cc(C)c(Sc2ncn(C(=O)N(C)C)n2)c(C)c1` [Example 32, 3-(2,4,6-Trimethylphenyl)thio-1-dimethylcarbamoyl-1H-1,2,4-triazole], the IC50 was found to be 3.69 µM.

In turn, `CN(C)C(=O)n1cnc(S(=O)(=O)c2cc(F)c(C#N)cc2F)n1` [Example 45, 3-(4-Cyano-2,5-difluorophenyl)sulfonyl-1-dimethylcarbamoyl-1H-1,2,4-triazole] displayed an IC50 of 0.0324 µM.

Source of the values: patent publication US7238720B2, “Pharmaceutical use of N-carbamoylazole derivatives” (Eisai R & D Management Co. Ltd., priority 2001, dated 2007).
